≈ marks a conversion by molar mass, not a printed value. Read-outs that look alike come from different tables or passages of the source. Residues, ends and D or L forms follow the SMILES beside them.
Tests used:
F culmorum = test: Antifungal activity of combinations of Rs-AFP and 15-mer peptides; format: cell-based, Fusarium culmorum; conditions: 100 x MIC of Rs-AFP2 / MIC of Rs-AFP2/peptide combination; 15-mer peptide added at 20 μg/ml; SMF medium; BSA-coated plates; Rs-AFP2 alone = 100
Protocol: The 15-mer peptides were tested for their ability to affect the antifungal activity of the Rs-AFP2 protein (SEQ ID NO: 35). Each peptide was added at a subinhibitory concentration (20 μg/ml ) to a twofold dilution series of Rs-AFP2 (SEQ ID NO: 35) ranging from 20 μg/ml down to 0.15 μg/ml. In the control series only water was added.
The target fungus was F culmorum and the growth medium was SMF. In order to exclude the effect of differential binding of the peptides to the microplate wells, the plates were coated with bovine serum albumin. […] The relative specific activity is defined as one hundred times the MIC of Rs-AFP2 divided by the MIC of the Rs-AFP2/peptide combination. Data are based on duplicate tests.

[1] = tested on: Fusarium culmorum (IMI 180420); test: Antifungal growth inhibition microplate assay (photospectrometry); format: cell-based; conditions: ½ PDB; for F CULMORUM IC: Table 6 / FIG. 8: Rs-AFP1-based 9-mer split peptides
Protocol: (§1) The following fungal strains were used: Alternaria brassicicola (MUCL 20297), Ascophyta pisi (MUCL 30164), Botrytis cinerea (MUCL 30158), Fusarium culmorum (IMI 180420) and Verticillium dahliae (MUCL 19210).
(§2) Fungi were grown on six cereal agar plates at room temperature and under white fluorescent light except for F culmorum and V dahliae which were grown in the dark. The duration of the spore harvest varied between 10 and 25 days depending on the strain. Spores were collected as follows. Five to ten ml of sterile milli-Q water was poured into each dish and the surface of the agar was rubbed with a sterile spatula to obtain a suspension containing mycelium and spores. This suspension was filtered through a sterile glasswool-plugged funnel and the filtrate containing the spores was collected in a sterile polypropylene centrifuge tube. The A brassicicola spores were suspended in sterile 0.1 Tween 20 (Merk, 822184) due to their hydrophobic nature. The spore suspensions were then washed twice by centrifugation at 2,400×g for 15 minutes and resuspended in a small volume of steril milli-Q water. The spore density was determined in a counting chamber and then adjusted to 4×10^7 spores per ml. Aliquots of the spore suspension were transferred to sterile microtubes and an equal volume of sterile 50% glycerol (Merck, 4091) was added to each tube so that a final spore suspension of 2×10^7 spores per ml in 25% glycerol was obtained. After careful mixing of the stock, the spore suspension was transferred in 100 μl aliquots to sterile microtubes and stored at −80° C.
(§3) Antifungal activity was measured by photospectrometry as described by Broekaert et al, (1990, FEMS Microbiol Lett, 69:55-60). Tests were performed by adding 20 μl of test solution and 80 μl of a fungal spore suspension (2×10^4 spores/ml) per well in a sterile flat-bottom 96-well microtiterplate. The spore suspension was prepared by diluting the stock spore suspension ([…] in 25% glycerol) 1:1000 in half-strength potato dextrose broth. A positive growth control consisting of eight wells containing 20 μl of sterile milli-Q water and 80 μl of the fungal spore suspension was included in each test. The microtiterplates were incubated (with the lid on) in an aerated place at room temperature and under conditions of darkness for all test organisms.
(§4) After 30 minutes of incubation (when the spores are settled on the well bottom) the optical density was measured in a microplate reader (Bio Rad 3550-UV) at 595 nm. Incubation of the microtiterplates continued until the optical density of the control microculture was between 0.250 and 0.500, which took approximately 72 hours (96 hours for V dahliae). Percentage of growth inhibition (% GI) was estimated as 100 times the ratio of the corrected absorbance of the control microculture minus the corrected absorbance of the test microculture over the corrected absorbance of the control microculture at 595 nm. The corrected absorbance values equal the absorbance at 595 nm of the culture measured after 72 or 96 hours minus the absorbance at 595 nm measured after 30 minutes.
(§5) % GI=[(Acontrol−Atest/Acontrol]×100
(§6) where Acontrol=(A72/96h−A30min)control
(§7) The IC50 value is defined as the concentration that gives a 50% growth inhibition after 72 or 96 hours of incubation. The minimum inhibitory concentration (MIC) corresponds to the minimum concentration that gives 100% growth inhibition after 72 or 96 hours incubation.

[2] = tested on: Ascophyta pisi (MUCL 30164); format: cell-based; conditions: for A PISI IC: the source numbers peptides by N-terminal amino acid
Protocol: as §1, §2, §3, §4, §5, §6, §7

[3] = Table 4 / FIG. 6: Rs-AFP2-based 12-mer split peptides, the source numbers peptides by N-terminal amino acid
[4] = Table 4: Rs-AFP2-based 12-mer split peptides, triplicate
[5] = Table 7 / FIG. 8: Rs-AFP1-based 12-mer split peptides, the source numbers peptides by N-terminal amino acid
[6] = Table 7: Rs-AFP1-based 12-mer split peptides
[7] = Table 7: Rs-AFP1-based 12-mer split peptides, ½ PDB
[8] = Table 3 / FIG. 6: Rs-AFP2-based 9-mer split peptides, the source numbers peptides by N-terminal amino acid
[9] = Table 3: Rs-AFP2-based 9-mer split peptides, duplicate
[10] = the source numbers peptides by N-terminal amino acid
[11] = Table 6: Rs-AFP1-based 9-mer split peptides
[12] = Table 6: Rs-AFP1-based 9-mer split peptides, ½ PDB

| Compound | IC50 [1, 3] [mg/L] | MIC [1, 4] [mg/L] | F CULMORUM IC50 [1, 5] [mg/L] | F CULMORUM MIC [1, 6] [µg/mL] | A PISI IC50 [2, 7] [mg/L] | A PISI MIC [2, 7] [mg/L] | IC50 [1, 8] [mg/L] | MIC [1, 9] [mg/L] | F CULMORUM IC [1, 10] [µg/mL] | F CULMORUM MIC [1, 11] [µg/mL] | A PISI MIC [2, 12] [mg/L] | A PISI IC [2, 12] [µg/mL] | other results |
| --- | --- | --- | --- | --- | --- | --- | --- | --- | --- | --- | --- | --- | --- |
| CC[C@H](C)[C@H](NC(=O)[C@H](CS)NC(=O)[C@H](CCC(N)=O)NC(=O)[C@H](CC(N)=O)NC(=O)[C@H](CCCCN)NC(=O)[C@H](CS)NC(=O)[C@H](C)NC(=O)[C@H](CC(N)=O)NC(=O)[C@H](CC(N)=O)NC(=O)[C@H](CC(N)=O)NC(=O)CNC(=O)[C@H](CS)NC(=O)[C@@H](NC(=O)CNC(C)=O)C(C)C)C(=O)N[C@@H](CCCNC(=N)N)C(N)=O [Peptide 4 (Rs-AFP2 15-mer)] (Ac-GVCGNNNACKNQCIR-NH2; N-terminus and C-terminus assumed) | – | – | – | – | – | – | – | – | – | – | – | – | Relative Specific Antifungal Activity (F culmorum): 180 |
| CC[C@H](C)[C@H](NC(=O)[C@H](CS)NC(=O)[C@H](CCCCN)NC(C)=O)C(=O)N[C@@H](CS)C(=O)N[C@@H](Cc1ccc(O)cc1)C(=O)N[C@@H](Cc1ccccc1)C(N)=O [compound 44] (Ac-KCICYF-NH2) | – | – | – | – | – | – | – | – | – | – | – | – | F CULMORUM IC50 ([1]; Table 5 / FIG. 8: Rs-AFP1-based 6-mer split peptides): 376 mg/L; F CULMORUM MIC ([1]; Table 5: Rs-AFP1-based 6-mer split peptides): >400 tg/ml; A PISI IC50 [2]: 400 mg/L; A PISI MIC [2]: >400 mg/L |
| CC(=O)NCC(=O)N[C@@H](CO)C(=O)N[C@@H](CS)C(=O)N[C@@H](CC(N)=O)C(=O)N[C@@H](Cc1ccc(O)cc1)C(=O)N[C@H](C(=O)N[C@@H](Cc1ccccc1)C(=O)N1CCC[C@H]1C(=O)N[C@@H](C)C(=O)N[C@@H](Cc1c[nH]cn1)C(=O)N[C@@H](CCCCN)C(=O)N[C@@H](CS)C(N)=O)C(C)C [compound 123] (Ac-GSCNYVFPAHKC-NH2) | 280 (≈ 205 µM) | 300 (≈ 220 µM) | 266 | 300 | 349 | >400 | – | – | – | – | – | – | – |
| CC[C@H](C)[C@H](NC(=O)[C@H](CS)NC(=O)[C@H](CCCCN)NC(=O)[C@H](Cc1c[nH]cn1)NC(=O)[C@H](C)NC(=O)[C@@H]1CCCN1C(=O)[C@H](Cc1ccccc1)NC(=O)[C@@H](NC(C)=O)C(C)C)C(=O)N[C@@H](CS)C(=O)N[C@@H](Cc1ccc(O)cc1)C(=O)N[C@@H](Cc1ccccc1)C(=O)N1CCC[C@H]1C(N)=O [compound 128] (Ac-VFPAHKCICYFP-NH2) | 344 (≈ 235 µM) | >400 | 320 | >400 | 181 | 400 | – | – | – | – | – | – | – |
| CC[C@H](C)[C@H](NC(=O)[C@H](CS)NC(=O)[C@H](CCCCN)NC(=O)[C@H](Cc1c[nH]cn1)NC(=O)[C@H](C)NC(=O)[C@@H]1CCCN1C(=O)[C@H](Cc1ccccc1)NC(C)=O)C(=O)N[C@@H](CS)C(=O)N[C@@H](Cc1ccc(O)cc1)C(N)=O [compound 86] (Ac-FPAHKCICY-NH2) | – | – | – | – | – | – | 144 (≈ 128 µM) | 400 (≈ 356 µM) | 196 | 250 | 200 | 80 | – |
| Ac-RHGSCNYVF-NH2 [compound 78] | – | – | – | – | – | – | 284 | 400 | 69 | 100 | 100 | 70 | – |
| CC[C@H](C)[C@H](NC(=O)[C@H](CS)NC(=O)[C@H](CCCCN)NC(=O)[C@H](Cc1c[nH]cn1)NC(=O)[C@H](C)NC(=O)[C@@H]1CCCN1C(C)=O)C(=O)N[C@@H](CS)C(=O)N[C@@H](Cc1ccc(O)cc1)C(=O)N[C@@H](Cc1ccccc1)C(N)=O [compound 87] (Ac-PAHKCICYF-NH2) | – | – | – | – | – | – | 39 (≈ 34.7 µM) | 50 (≈ 44.5 µM) | 28 | 37.5 | 50 | 31 | – |
| Ac-HGSCNYVFPAHK-NH2 [compound 122] | 30 | 50 | 35 | 50 | 74 | 100 | – | – | – | – | – | – | – |
